How the values were obtained:
[1] = system: human alpha 1-antitrypsin reporter gene expression; test: Serum level of human α1-antitrypsin reporter after adenovirus administration (Example 2); type: in vivo; parameters: average serum level of human α1-antitrypsin: unit not given here; conditions: NMRI mice
Procedure: (§1) On day 0, all mice were administered-a dose of 1×10^10 adenoviruses via the tail vein. The recombinant adenoviruses carry the gene for human alpha 1-antitrypsin as a reporter gene found in the serum. This gene has proven to be a practicable reporter, since it is not antigenic in the mouse, but nevertheless can be differentiated from murine alpha 1-antitrypsin using a specific antibody. The half-life of the antiprotease is approximately 3-4 days, so that the serum level reflects the current synthesis capacity of the liver very well.
(§2) The total collective was subdivided into five groups of 4 animals each, which were treated as follows: • 1st group: control group—no immunosuppressant treatment, administration of saline solution i.p. for the period of 5 days after virus administration. • 2nd . group: FK 506 group—administration of 1 mg/kg/day of FK 506 i.p. beginning 1 day before virus administration and then for a period of 5 days. • 3rd group: cyclosporin A group—administration of 20 mg/kg/day i.p. beginning 1 day before virus administration and then for a period of 5 days. • 4th group: DSG group—administration of 10 mg/kg/day i.p. beginning 1 day before virus administration and then for the period of 5 days. • 5th group: DSG++ group—administration of 10 mg/kg/day i.p. beginning 1 day before virus administration and then daily for the period of five days and then twice weekly for the period of 150 days.
(§3) NMRI mice were used, since these mice, due to their genetic heterogeneity, develop an immunological reaction pattern which approaches that of a human population more closely than pure inbred strains; the price is an increased variability in the immunological reactivity. In spite of this, the individual groups develop significant reaction patterns.

[2] = system: antibody load against viral proteins; test: Mean antibody titer against viral proteins after adenovirus administration (Example 2); type: in vivo; conditions: NMRI mice
Procedure: as §1, §2, §3
The quantitative factor 15 days after discontinuing DSG is approximately 1.8. Continuous treatment (2× weekly) is no longer able to increase this effect dramatically. […] Even the transient administration of DSG reduces the antibody response in comparison with the control by more than 60% with, at the same time, a markedly positive effect on expression.

[3] = system: reporter gene β-galactosidase expression in the liver; test: Reporter gene (β-galactosidase) expression in the liver after recombinant adenovirus administration (Example 1); type: in vivo, mice
[4] = system: antibodies after recombinant adenovirus vector administration; test: Formation of antibodies after vector administration (Example 1); type: in vivo; conditions: mice; cyclosporin A 50-100 mg/kg/day, DSG 10 mg/kg/day for 21 days after recombinant adenovirus
Procedure: Cyclosporin A (50-100 mg/kg/day) and DSG (10 mg/kg/day) was administered to the mice over a period of 21 days after administration of a recombinant adenovirus (reporter gene β-galactosidase; Bett et al. Proc. Natl. Acad. Sci. USA, 91 (1994), pages 8802-8806).
In the control group, it was possible to detect the formation of antibodies even 5 days after vector administration.

[5] = day 5, i.p. from 1 day before virus then for 5 days (FK 506 1, cyclosporin A 20, DSG 10 mg/kg/day)
[6] = day 10, i.p. from 1 day before virus then for 5 days (FK 506 1, cyclosporin A 20, DSG 10 mg/kg/day)
[7] = day 20, i.p. from 1 day before virus then for 5 days (FK 506 1, cyclosporin A 20, DSG 10 mg/kg/day)
[8] = day 30, i.p. from 1 day before virus then for 5 days (FK 506 1, cyclosporin A 20, DSG 10 mg/kg/day)
[9] = day 60, i.p. from 1 day before virus then for 5 days (FK 506 1, cyclosporin A 20, DSG 10 mg/kg/day)
[10] = day 100, i.p. from 1 day before virus then for 5 days (FK 506 1, cyclosporin A 20, DSG 10 mg/kg/day)
[11] = day 150, i.p. from 1 day before virus then for 5 days (FK 506 1, cyclosporin A 20, DSG 10 mg/kg/day)
[12] = day 200, i.p. from 1 day before virus then for 5 days (FK 506 1, cyclosporin A 20, DSG 10 mg/kg/day)
[13] = day 30, DSG++ group: 10 mg/kg/day i.p. from 1 day before virus, daily for five days, then twice weekly for 150 days
[14] = day 100, DSG++ group: 10 mg/kg/day i.p. from 1 day before virus, daily for five days, then twice weekly for 150 days
[15] = day 150, DSG++ group: 10 mg/kg/day i.p. from 1 day before virus, daily for five days, then twice weekly for 150 days
[16] = day 200, DSG++ group: 10 mg/kg/day i.p. from 1 day before virus, daily for five days, then twice weekly for 150 days
[17] = mice treated with DSG only for 5 days after vector administration, 42nd day after vector administration

C=CC[C@@H]1/C=C(\C)C[C@H](C)C[C@H](OC)[C@H]2O[C@@](O)(C(=O)C(=O)N3CCCC[C@H]3C(=O)O[C@H](/C(C)=C/[C@@H]3CC[C@@H](O)[C@H](OC)C3)[C@H](C)[C@@H](O)CC1=O)[C@H](C)C[C@@H]2OC [FK 506]
average serum level of human α1-antitrypsin [1, 5]: 1725000 | average serum level of human α1-antitrypsin [1, 6]: 1278750 | average serum level of human α1-antitrypsin [1, 7]: 376250 | average serum level of human α1-antitrypsin [1, 8]: 17475 | average serum level of human α1-antitrypsin [1, 9]: 4258 | average serum level of human α1-antitrypsin [1, 10]: 313 | average serum level of human α1-antitrypsin [1, 11]: 1.5 | average serum level of human α1-antitrypsin [1, 12]: 1.5 | Mean antibody titer [2, 8]: 65536 | Mean antibody titer [2, 10]: 43832 | Mean antibody titer [2, 11]: 25149 | Mean antibody titer [2, 12]: 17710

Cl.Cl.Cl.N=C(N)NCCCCCCC(=O)NC(O)C(=O)NCCCCNCCCN (stereo not shown) [DSG, 1-amino-19-guanidine-11-hydroxy-4,9,12-triazanondecane-10,13-dione trihydrochloride]
effect on antitrypsin expression ([1]; 5-day treatment with DSG): marked increase and prolongation of antitrypsin expression | quantitative factor (transgenic expression product of immunosuppressed group / nonimmunosuppressed control group) ([1]; 15 days after discontinuing DSG (5-day treatment, 10 mg/kg/day i.p.)): approximately 1.8 | expression with continuous treatment compared with transient administration ([1]; continuous DSG treatment (2× weekly) versus transient administration): only slightly increased | average serum level of human α1-antitrypsin ([1]; day 5, DSG++ group: 10 mg/kg/day i.p. from 1 day before virus, daily for five days, then twice weekly for 150 days): 2775000 | average serum level of human α1-antitrypsin [1, 5]: 2775000 | average serum level of human α1-antitrypsin ([1]; day 10, DSG++ group: 10 mg/kg/day i.p. from 1 day before virus, daily for five days, then twice weekly for 150 days): 677500 | average serum level of human α1-antitrypsin [1, 6]: 1560000 | average serum level of human α1-antitrypsin ([1]; day 20, DSG++ group: 10 mg/kg/day i.p. from 1 day before virus, daily for five days, then twice weekly for 150 days): 1178750 | average serum level of human α1-antitrypsin [1, 7]: 1826250 | average serum level of human α1-antitrypsin [1, 13]: 1082500 | average serum level of human α1-antitrypsin [1, 8]: 1001250 | average serum level of human α1-antitrypsin ([1]; day 60, DSG++ group: 10 mg/kg/day i.p. from 1 day before virus, daily for five days, then twice weekly for 150 days): 297500 | average serum level of human α1-antitrypsin [1, 9]: 213500 | average serum level of human α1-antitrypsin [1, 14]: 68750 | average serum level of human α1-antitrypsin [1, 10]: 51750 | average serum level of human α1-antitrypsin [1, 15]: 17125 | average serum level of human α1-antitrypsin [1, 11]: 13125 | average serum level of human α1-antitrypsin [1, 16]: 14350 | average serum level of human α1-antitrypsin [1, 12]: 10625 | proportion of animals with expression still measurable [3, 17]: approximately 50% | reporter gene expression relative to the maximal expression [3, 17]: approximately 10% | reporter gene expression after discontinuing the immunosuppressants ([3]; mice, 21 days after discontinuing 21-day treatment (42 days after vector administration)): a massive gene expression was still detectable | reporter gene expression in the liver over the treatment period ([3]; mice, cyclosporin A 50-100 mg/kg/day, DSG 10 mg/kg/day for 21 days after recombinant adenovirus, treatment period of 21 days): continues undecreased | reduction of antibody load against viral proteins ([2]; continuous DSG treatment (2× weekly), after 150 days): approximately 90% | Mean antibody titer [2, 13]: 13005 | Mean antibody titer [2, 8]: 26310 | Mean antibody titer [2, 14]: 11251 | Mean antibody titer [2, 10]: 31029 | Mean antibody titer [2, 15]: 7335 | Mean antibody titer [2, 11]: 25149 | Mean antibody titer [2, 16]: 9669 | Mean antibody titer [2, 12]: 20586 | reduction of antibody response in comparison with the control ([2]; transient administration of DSG (5 days)): more than 60% | antibody production [4]: completely eliminated

Source: patent publication US20070191299A1, “Extension Of The Expression of Transgenic Proteins By Immunomodulation” (priority 1997, published 2007)
